This is an account of results in publication PMC3630091, “A Mechanistic Paradigm for Broad-Spectrum Antivirals that Target Virus-Cell Fusion” (PLoS Pathogens, 2013).

For one series, the system named is NDV. As to the kind of experiment: microbe, parasite or virus in culture. It counts as cell-based, Newcastle disease virus. The following applies: read-out: IC50 ± SD (nM) (N=x) NDV.
The nature of the next series: Pharmacokinetics in mice. Particulars: for MRT last / Tmax / AUC(0-t) / Cmax: female, Balb/c, mouse, in vivo; for improvements in relevant pharmacokinetic (PK) parameters compared to LJ001: half-life, AUC, bioavailability, clearance.
In another series the test system is HIV. As to the kind of experiment: microbe, parasite or virus in culture. It counts as cell-based. The following applies: Human immunodeficiency virus 1, 10 min, read-out: IC50 ± SD (nM) (N=x) HIV.
The subject of another series is HSV. As to the kind of experiment: microbe, parasite or virus in culture. It counts as cell-based, Herpes simplex virus-1. The following applies: Human alphaherpesvirus 1, 10 min, read-out: IC50 ± SD (nM) (N=x) HSV.
A short description of series [1]: Singlet oxygen quantum yield measurements. It counts as physicochemical. The following applies: for 1O2 QY 355 nm: in CD2Cl2, excitation 355 nm; for 1O2 QY 355 nm / 1O2 QY 532 nm: error is one standard deviation; for 1O2 QY 532 nm: in CD2Cl2, excitation 532 nm.
The next series is described as follows: in vitro. Particulars: human.
A short description of series [2]: Singlet oxygen quenching measurements. Format: physicochemical. The following applies: 355 nm with C60 as external sensitizer; error is one standard deviation.
Series [3] is described as follows: Clinical observations after single dose in PK study. It counts as in vivo, female Balb/c mice. Particulars: single dose 2.5 mg/kg ip, about 15 min post administration. How it is done:
Dose administration. […] These mice were replaced and the dose level was reduced to 5 mg/kg. […] Hypoactivity was the only clinical observation noted in some of the mice treated with the 3 test articles at 10 and 100 mg/kg po. […] These animals were replaced and administered with the lower ip dose level of 1.25 mg/kg and underwent blood collections. Mice received single ip doses of 1.25 mg/kg (JL109 and JL118) or 5 mg/kg (JL122) and po doses of 10 mg/kg (JL109, JL118, JL122), 50 mg/kg (JL109, JL118), or 100 mg/kg (JL109, JL118, JL122).

The nature of series [4]: Absorbance spectra / UV-visible spectra integration. It counts as physicochemical. Particulars: for Abs Max (λmax): 100 µM in DMSO; for AUC (400-750 nm): integrated absorption divided by concentration, normalized relative to LJ001 (LJ001 = 100); for total integrated absorption (AUC), times that of LJ001: λ = 400 to 750 nm.
Another series concerns enveloped viruses. Format: cell-based.
In another series the test system is RVFV ZH501. Format: in vivo, Balb/c mice. Particulars: for time-to-death / survival compared to untreated controls: 20 pfu RVFV ZH501 IP, IP once a day for 7 days from 1 h post-challenge, JL118 1.25 mg/kg, JL122 and JL103 10 mg/kg.
The test system of another series is HIV-1JR-CSF. It counts as cell-based.
Series [5] can be described thus: Membrane partition into POPC LUV (fluorescence). Particulars: for IL / Iw: POPC LUV, fluorescence intensity ratio from curve fitting.
The nature of series [6]: Membrane partition into HIV membrane-like mixture LUV (fluorescence). Particulars: for IL / Iw: HIV-like mixture LUV, fluorescence intensity ratio from curve fitting.
Series [7] is described as follows: Acrylamide quenching in POPC vesicles. The following applies: >50-fold molar excess of lipid; 3 mM POPC vesicles. Format: physicochemical.
The conditions of series [8]: reference sensitizer value; cited from earlier work.

Where two headings read alike, the source gives them in different places.

For the compound `Cc1cn([C@H]2C[C@H](N=[N+]=[N-])[C@@H](CO)O2)c(=O)[nH]c1=O` [AZT], in the series with HIV-1JRCSF, the “t1/2 (inhibition half-life, time-of-addition)” value is greater than 8.33 h.
The term IC50 denotes the concentration needed to halve the response being measured. Consider `CCN1C(=O)/C(=C/c2ccc(-c3ccccc3)o2)OC1=S` [JL101], for which the IC50 in the series with NDV turned out to be 8800 nM.
A word on the MRT last: it is a mean duration of stay, worked out from the concentration-time curve. Broadly, the Tmax is the time from dosing to the highest level. As usually defined, the AUC(0-t) is exposure summed from dosing to a finite time, without extrapolation to infinity. What is called Cmax is the maximum level reached in the sampled fluid or tissue. In the series “Pharmacokinetics in mice”, `CCN1C(=S)O/C(=C\c2ccc(-c3ccc(OC)cc3OC)o2)C1=S` [JL109, (Z)-5-((5-(2,4-dimethoxyphenyl)furan-2-yl)methylene)-3-ethyloxazolidine-2,4-dithione] had an MRT last of 4.5 to 10 h. In addition, the time of peak concentration (Tmax) in the series “Pharmacokinetics in mice” was in the range of 0.25 to 1 h. Also, the exposure AUC(0-t) in the series “Pharmacokinetics in mice” (po, 10 mg/kg) amounted to 354 ng·h/mL; in the series “Pharmacokinetics in mice” (po, 50 mg/kg) it was 595 ng·h/mL; in the series “Pharmacokinetics in mice” (po, 100 mg/kg) it was 538 ng·h/mL. The Cmax in “Pharmacokinetics in mice” (po, 10 mg/kg, po 10 mg/kg) came out at 88.2 ng/mL; in the series “Pharmacokinetics in mice” (po, 50 mg/kg, po 50 mg/kg) it was 127 ng/mL; in the series “Pharmacokinetics in mice” (po, 100 mg/kg, po 100 mg/kg), 78.2 ng/mL. Moreover, the half-maximal inhibitory concentration (IC50) was 4.5 ± 4.8 nM in the series with HIV; 0.7 nM with HSV; 3.8 ± 3.9 nM in the series with NDV (avian paramyxovirus 1, 10 min). In series [1], the “1O2 QY 355 nm” value was found to be 0.37 ± 0.02. Also, the “1O2 QY 532 nm” value in series [1] stood at 0.38 ± 0.02. The same compound showed a CC50 in the series “in vitro” of 8.51 µM. In addition, the “kT × 10-7” value in series [2] is 2.000 ± 0.100 M-1s-1. For the same compound, in series [3], the clinical observations entry was “deaths occurred in the initial 3 animals”. Moreover, the “Abs Max (λmax)” value in [4] came out at 550 nm. For the same compound, the “AUC (400-750 nm)” value in [4] is 178.
With `CCN1C(=S)O/C(=C\c2ccc(-c3ccc(N(C)C)cc3)o2)C1=S` [JL118, (Z)-5-((5-(4-(dimethylamino)phenyl)furan-2-yl)methylene)-3-ethyloxazolidine-2,4-dithione], in the series “Pharmacokinetics in mice”, the MRT last was in the range of 5.3 to 11.4 h, the Tmax was 0.25 to 1 h and the “improvements in relevant pharmacokinetic (PK) parameters compared to LJ001” value is recorded as greater than 10 fold. Moreover, the exposure AUC(0-t) in “Pharmacokinetics in mice” (po, 10 mg/kg) is 1350 ng·h/mL. For the same compound, in “Pharmacokinetics in mice” (po, 50 mg/kg), the AUC(0-t) was determined as 841 ng·h/mL. The exposure AUC(0-t) in “Pharmacokinetics in mice” (po, 100 mg/kg) came out at 1160 ng·h/mL. For the same compound, the “improved in vitro potency compared to LJ001” value with enveloped viruses is 10-100 fold. Besides, the IC50 with HIV turned out to be 11.7 ± 5.5 nM. Besides, the half-inhibitory concentration (IC50) with HSV turned out to be 10.1 ± 8.6 nM. Also, in series [1], the “1O2 QY 355 nm” value came out at 0.14 ± 0.01 and the “1O2 QY 532 nm” value came out at 0.15 ± 0.02. Besides, in the series on RVFV ZH501, the “time-to-death / survival compared to untreated controls” value is given as “moderate but significant delay in time-to-death”. Further, in the series on HIV-1JR-CSF, the “antiviral potency at physiological hematocrits” value was “maintained their antiviral potency”. Moreover, in series [5], the Kp at 10 min, 50 µM worked out at 2700 and the “IL / Iw” value was 233. This compound displayed a CC50 in the series “in vitro” of 37.1 µM. Also, the “kT × 10-7” value in series [2] was 4.600 ± 0.300 M-1s-1. Moreover, the IC50 with NDV (avian paramyxovirus 1, 10 min) was 2.1 ± 1.4 nM. In addition, in [6], the Kp at 10 min, 50 µM turned out to be 2010 and the “IL / Iw” value came out at 488. The clinical observations result in series [3] is given as “deaths occurred in the initial 3 animals”. In addition, in series [4], the “Abs Max (λmax)” value was determined as 610 nm; the “AUC (400-750 nm)” value is 200; the “total integrated absorption (AUC), times that of LJ001” value worked out at 2 times.
In “Pharmacokinetics in mice”, `CCN1C(=S)O/C(=C\c2ccc(-c3c(OC)cc(OC)cc3OC)o2)C1=S` [JL122, (Z)-3-ethyl-5-((5-(2,4,6-trimethoxyphenyl)furan-2-yl)methylene)oxazolidine-2,4-dithione] displayed a mean residence time MRT last of 4.7 to 7 h. Moreover, the time to peak (Tmax) in the series “Pharmacokinetics in mice” was in the range of 0.25 to 1 h. Besides, the AUC(0-t) came to 569 ng·h/mL in “Pharmacokinetics in mice” (ip, 5 mg/kg); 924 ng·h/mL in “Pharmacokinetics in mice” (ip, 10 mg/kg); 232 ng·h/mL in “Pharmacokinetics in mice” (po, 10 mg/kg); 1270 ng·h/mL in the series “Pharmacokinetics in mice” (po, 100 mg/kg). Besides, the Cmax came to 122 ng/mL in the series “Pharmacokinetics in mice” (ip, 5 mg/kg, ip 5 mg/kg); 132 ng/mL in the series “Pharmacokinetics in mice” (ip, 10 mg/kg, ip 10 mg/kg); 122 ng/mL in the series “Pharmacokinetics in mice” (po, 50 mg/kg, po 50 mg/kg). In addition, the “improvements in relevant pharmacokinetic (PK) parameters compared to LJ001” value in “Pharmacokinetics in mice” was greater than 10 fold. For the same compound, the “improved in vitro potency compared to LJ001” value with enveloped viruses was 10-100 fold. For the same compound, the IC50 in the series on HIV came to 64 ± 41.5 nM; in the series with HSV it was 2.4 ± 1.4 nM; with NDV (avian paramyxovirus 1, 10 min), 0.9 ± 0.8 nM. Besides, the “QY at 355 nm, times higher than LJ001” value in series [1] (355 nm) was “about 2 times”. The “1O2 QY 355 nm” value in [1] is given as 0.43 ± 0.04. Besides, the “1O2 QY 532 nm” value in series [1] is reported as 0.23 ± 0.02. The “time-to-death / survival compared to untreated controls” value in the series on RVFV ZH501 was “moderate but significant delay in time-to-death”. In addition, in the series with RVFV ZH501 (50 pfu RVFV ZH501 IP, 10 mg/kg IP at 1, 12, 24 and 48 h post-challenge, n = 5), the Median survival was 6 days. In the series on HIV-1JR-CSF, the “antiviral potency at physiological hematocrits” value is “maintained their antiviral potency”. The Kp at 10 min, 50 µM was 1130 in series [5] and 267 in [6]. For the same compound, the “IL / Iw” value was found to be 143.8 in series [5] and 613.7 in series [6]. This compound had a CC50 in “in vitro” of 10.3 µM. The “kT × 10-7” value in series [2] was 1.970 ± 0.050 M-1s-1. In [4], the “Abs Max (λmax)” value is listed as 545 nm. Besides, the “AUC (400-750 nm)” value in [4] was determined as 153. The “total integrated absorption (AUC), times that of LJ001” value in series [4] is given as 1.53 times.
One may read the melting point as the temperature, or range, at which the solid turns liquid. For `C=CCN1C(=O)S/C(=C\c2ccc(-c3ccccc3)o2)C1=O` [LJ025, (Z)-3-allyl-5-((5-phenylfuran-2-yl)methylene)thiazolidine-2,4-dione], the melting point fell in the range of 149 to 151 °C. Further, the “1O2 QY 355 nm” value in [1] is listed as 0. For the same compound, in series [5], the “IL / Iw” value was determined as 2.79. In addition, the CC50 in “in vitro” was greater than 50 µM. In [2], the “kT × 10-7” value is listed as 0.191 ± 0.010 M-1s-1. Also, in [6], the “IL / Iw” value came to 3.60. In addition, in [4], the “Abs Max (λmax)” value came to 405 nm and the “AUC (400-750 nm)” value is on record as less than 100. Also, the “fraction protected from the water-soluble quencher (acrylamide)” value in series [7] is given as “over 85%”.
For `O=C1OC2(c3cc(I)c(O)c(I)c3Oc3c2cc(I)c(O)c3I)c2c(Cl)c(Cl)c(Cl)c(Cl)c21` [RB, Rose Bengal], the “1O2 QY of reference compound at 532 nm” value in series [8] is on record as 0.79.
Consider `C1=Cc2nc1c(-c1ccccc1)c1ccc([nH]1)c(-c1ccccc1)c1nc(c(-c3ccccc3)c3ccc([nH]3)c2-c2ccccc2)C=C1` [TPP], for which the “1O2 QY of reference compound at 532 nm” value in [8] is listed as 0.62.
